According to patent publication US12611393B2, “Treatment of pain by targeting NR4A1” (UNIVERSITY OF CINCINNATI, priority 2019, dated 2026):

Key:
[1] = system: mice with paclitaxel-induced mechanical allodynia; test: Paclitaxel-induced neuropathic pain (CINP) model, mechanical allodynia; type: in vivo, mouse; settings: male WT mice, vs PBS
Excerpt: FIGS. 9A and 9B are graphs showing that NR4A1 deficiency exacerbates chemotherapy-induced neuropathic pain and neuroinflammation in DRG tissue.
FIGS. 10A and 10B are graphs showing that NA4A1 activation by Cytosporone B (Csn-B) prevents and reverses chemotherapy induced neuropathic pain. […]

[2] = system: mice after plantar incision (postoperative pain); test: Plantar incision model of postoperative pain (von Frey filaments, Hargreaves test); type: in vivo, mouse; settings: vs vehicle; for resolution of postoperative pain (mechanical and thermal hypersensitivity): von Frey filaments and Hargreaves test
Protocol: (§1) To investigate the underlying mechanisms of postoperative pain, we adopted a mouse model that is characterized by increased pain sensitivity and macrophage infiltration after a surgical incision made in the plantar aspect of the hind paw. Pain sensitivity and macrophage infiltration were evaluated in NA4A1 knockout (KO) mice. Expression and function of NR4A1 were also evaluated in neuronal and skin tissues, as well as in cultured macrophages.
We used a well-characterized animal model of postoperative pain consisting in plantar incision (FIG. 1). Specifically, FIGS. 1A-1C show an animal model of post-operative pain. FIG. 1A illustrates the experimental design depicting the plantar incision and timeline for the behavioral tests. FIG. 1B is a graph showing how, after plantar incision, mice develop mechanical hypersensitivity (assessed by von Frey filaments) and FIG. 1C is a graph showing thermal hypersensitivity (assessed by Hargreaves test). […]
Cutaneous application of an NA4A1 agonist accelerates the resolution of post-operative pain. […] FIG. 4B is a graph showing mechanical hypersensitivity as assessed by von Frey filaments before injection of the drug (prevention). FIG. 4C is a graph showing mechanical hypersensitivity as assessed by von Frey filaments after drug injection (acute analgesia). FIG. 4D is a graph showing thermal hypersensitivity as assessed by Hargreaves test before injection of the drug (prevention). FIG. 4E is a graph showing thermal hypersensitivity as assessed by Hargreaves test after drug injection (acute analgesia). […]
FIG. 5B is a graph showing mechanical hypersensitivity as assessed by von Frey filaments before injection of the drug (prevention), and FIG. 5C is a graph showing mechanical hypersensitivity as assessed by von Frey filaments after drug injection (acute analgesia). FIG. 5D is a graph showing thermal hypersensitivity as assessed by Hargreaves test before injection of the drug (prevention). FIG. 5D is a graph showing thermal hypersensitivity as assessed by Hargreaves test after drug injection (acute analgesia). […]

[3] = system: NR4A1 knockout male mice after plantar incision; test: Plantar incision model of postoperative pain in NR4A1 knockout mice (von Frey filaments, Hargreaves test); type: in vivo, mouse; settings: local intraplantar injection, vs vehicle
Protocol: as §1
We used a well-characterized animal model of postoperative pain consisting in plantar incision (FIG. 1). Specifically, FIGS. 1A-1C show an animal model of post-operative pain. FIG. 1A illustrates the experimental design depicting the plantar incision and timeline for the behavioral tests. FIG. 1B is a graph showing how, after plantar incision, mice develop mechanical hypersensitivity (assessed by von Frey filaments) and FIG. 1C is a graph showing thermal hypersensitivity (assessed by Hargreaves test). These hypersensitivities are indicative of postoperative pain and resolve in 7 days. n=6 male mice per group, One-way ANOVA, *p<0.05 (Bonferroni).
FIG. 6A is a graph showing mechanical hypersensitivity as assessed by von Frey filaments, and FIG. 6B is a graph showing thermal hypersensitivity as assessed by Hargreaves test. […]

Peritoneal macrophages = test: Expression of pro-inflammatory mediators in cultured peritoneal macrophages activated with LPS; type: cell-based, mouse; settings: Cyto B 10 μg/ml, LPS 20 ng/ml
Protocol: Peritoneal macrophages were cultured and incubated with vehicle control, cytosporone B (Cyto B, 10 μg/ml) or/and the macrophage activator lipopolysaccharide (LPS, 20 ng/ml). n=4-8 cultures per group, One-way ANOVA, *p<0.05 (Vehicle vs. LPS, Bonferroni), #p<0.05 (LPS VS. LPS+Cyto B, Bonferroni).

With `CCCCCCCC(=O)c1c(O)cc(O)cc1CC(=O)OCC` [Cytosporone B] the “prevention of mechanical allodynia (chemotherapy induced neuropathic pain)” value ([1]; paclitaxel 2 mg/kg every other day x4, Csn-B intrathecal (i.t.) given with paclitaxel) was “significantly prevent”, the “reversal of mechanical allodynia (chemotherapy induced neuropathic pain)” value ([1]; treatment 14 d after first paclitaxel delivery, different doses of Csn-B) was “reverse” and the “resolution of postoperative pain (mechanical and thermal hypersensitivity)” value (shortened to “resolution of postoperative pain”) ([2]; female mice, local intraplantar injection) was “accelerates the resolution of postoperative pain”. The “resolution of postoperative pain” value ([2]; male mice, local intraplantar injection (i.pl.)) was “accelerates the resolution of postoperative pain”, the “effect on postoperative pain (mechanical and thermal hypersensitivity)” value ([2]; male mice, systemic intraperitoneal injection) was “limited effects on postoperative pain” and the “resolution of postoperative pain” value [3] was “fails to resolve postoperative pain”. The “expression of pro-inflammatory mediators in macrophages” value (Peritoneal macrophages) was “decreases the expression of pro-inflammatory mediators”.
